Test results from PubChem BioAssay (NCI).
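These data come from cells grown in 96-well plates and exposed to compound for 48 hours at five concentrations. TGI: total growth inhibition.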

Assays:
Assay in all cases: NCI tumour cell line growth inhibition, 48 h
786-0 renal = test system: 786-0 renal
DU-145 prostate = test system: DU-145 prostate
PC-3 prostate = test system: PC-3 prostate
MALME-3M melanoma = test system: MALME-3M melanoma
HOP-62 NSCLC = test system: HOP-62 NSCLC
CCRF-CEM leukemia = test system: CCRF-CEM leukemia
HCT-116 colon = test system: HCT-116 colon
KM12 colon = test system: KM12 colon
MDA-N = test system: MDA-N
RPMI-8226 leukemia = test system: RPMI-8226 leukemia
SF-268 CNS = test system: SF-268 CNS
A498 renal = test system: A498 renal
MDA-MB-231 breast = test system: MDA-MB-231 breast
NCI-H226 lung = test system: NCI-H226 lung
TK-10 renal = test system: TK-10 renal
SN12C renal = test system: SN12C renal
A549 NSCLC = test system: A549 NSCLC
HL-60(TB) leukemia = test system: HL-60(TB) leukemia
MOLT-4 leukemia = test system: MOLT-4 leukemia
MDA-MB-435 = test system: MDA-MB-435
OVCAR-8 ovarian = test system: OVCAR-8 ovarian
HT29 colon = test system: HT29 colon
SK-MEL-2 melanoma = test system: SK-MEL-2 melanoma
SF-295 CNS = test system: SF-295 CNS
CAKI-1 renal = test system: CAKI-1 renal
OVCAR-4 ovarian = test system: OVCAR-4 ovarian
NCI-H522 lung = test system: NCI-H522 lung
HCT-15 colon = test system: HCT-15 colon
HS 578T breast = test system: HS 578T breast
COLO 205 colon = test system: COLO 205 colon
SK-MEL-28 melanoma = test system: SK-MEL-28 melanoma
HOP-92 NSCLC = test system: HOP-92 NSCLC
OVCAR-5 ovarian = test system: OVCAR-5 ovarian
HCC-2998 colon = test system: HCC-2998 colon
SNB-19 CNS = test system: SNB-19 CNS
T-47D breast = test system: T-47D breast
SW-620 colon = test system: SW-620 colon
SK-MEL-5 melanoma = test system: SK-MEL-5 melanoma
EKVX NSCLC = test system: EKVX NSCLC
SF-539 CNS = test system: SF-539 CNS
SR leukemia = test system: SR leukemia
IGROV1 ovarian = test system: IGROV1 ovarian
M14 melanoma = test system: M14 melanoma
LOX IMVI melanoma = test system: LOX IMVI melanoma
U251 CNS = test system: U251 CNS
NCI-H460 lung = test system: NCI-H460 lung
K-562 leukemia = test system: K-562 leukemia
ACHN renal = test system: ACHN renal
UACC-257 melanoma = test system: UACC-257 melanoma
SK-OV-3 ovarian = test system: SK-OV-3 ovarian
NCI/ADR-RES ovarian = test system: NCI/ADR-RES ovarian
OVCAR-3 ovarian = test system: OVCAR-3 ovarian
MCF7 breast = test system: MCF7 breast
NCI-H23 lung = test system: NCI-H23 lung
UACC-62 melanoma = test system: UACC-62 melanoma

SMILES: CCOC(=O)/C(C)=C\[C@@]1(C)O[C@@H](C)[C@@](C)(OC(C)=O)[C@@H]1OC(C)=O
- TGI (786-0 renal): > 100 µM
- TGI (DU-145 prostate): > 100 µM
- TGI (PC-3 prostate): > 100 µM
- TGI (MALME-3M melanoma): > 100 µM
- TGI (HOP-62 NSCLC): > 100 µM
- TGI (CCRF-CEM leukemia): > 100 µM
- TGI (HCT-116 colon): > 100 µM
- TGI (KM12 colon): > 100 µM
- TGI (MDA-N): > 100 µM
- TGI (RPMI-8226 leukemia): > 100 µM
- TGI (SF-268 CNS): > 100 µM
- TGI (A498 renal): > 100 µM
- TGI (MDA-MB-231 breast): > 100 µM
- TGI (NCI-H226 lung): > 100 µM
- TGI (TK-10 renal): > 100 µM
- TGI (SN12C renal): > 100 µM
- TGI (A549 NSCLC): > 100 µM
- TGI (HL-60(TB) leukemia): > 100 µM
- TGI (MOLT-4 leukemia): > 100 µM
- TGI (MDA-MB-435): > 100 µM
- TGI (OVCAR-8 ovarian): > 100 µM
- TGI (HT29 colon): > 100 µM
- TGI (SK-MEL-2 melanoma): > 100 µM
- TGI (SF-295 CNS): > 100 µM
- TGI (CAKI-1 renal): > 100 µM
- TGI (OVCAR-4 ovarian): > 100 µM
- TGI (NCI-H522 lung): 62.7 µM
- TGI (HCT-15 colon): 60.2 µM
- TGI (HS 578T breast): > 100 µM
- TGI (COLO 205 colon): > 100 µM
- TGI (SK-MEL-28 melanoma): > 100 µM
- TGI (HOP-92 NSCLC): > 100 µM
- TGI (OVCAR-5 ovarian): > 100 µM
- TGI (HCC-2998 colon): > 100 µM
- TGI (SNB-19 CNS): > 100 µM
- TGI (T-47D breast): 59.8 µM
- TGI (SW-620 colon): > 100 µM
- TGI (SK-MEL-5 melanoma): > 100 µM
- TGI (EKVX NSCLC): > 100 µM
- TGI (SF-539 CNS): > 100 µM
- TGI (SR leukemia): > 100 µM
- TGI (IGROV1 ovarian): > 100 µM
- TGI (M14 melanoma): > 100 µM
- TGI (LOX IMVI melanoma): > 100 µM
- TGI (U251 CNS): > 100 µM
- TGI (NCI-H460 lung): > 100 µM
- TGI (K-562 leukemia): > 100 µM
- TGI (ACHN renal): > 100 µM
- TGI (UACC-257 melanoma): > 100 µM
- TGI (SK-OV-3 ovarian): > 100 µM
- TGI (NCI/ADR-RES ovarian): > 100 µM
- TGI (OVCAR-3 ovarian): > 100 µM
- TGI (MCF7 breast): > 100 µM
- TGI (NCI-H23 lung): 77.1 µM
- TGI (UACC-62 melanoma): > 100 µM
